Test results as given in patent publication US9034906B2, “EP4 agonist” (Asahi Glass Company, Limited, priority 2008, dated 2015).

Assays:
human EP1 = target: T1, human EP1 (Homo sapiens, UniProt P34995); experiment: Receptor affinity, tritium-labeled PGE2 binding to membranes of transfected COS-7 cells; settings: COS-7 cell membranes
T1 construct: expressed in transfected cells; host or cells: COS-7 (membranes)
T1 sequence (P34995 1-402): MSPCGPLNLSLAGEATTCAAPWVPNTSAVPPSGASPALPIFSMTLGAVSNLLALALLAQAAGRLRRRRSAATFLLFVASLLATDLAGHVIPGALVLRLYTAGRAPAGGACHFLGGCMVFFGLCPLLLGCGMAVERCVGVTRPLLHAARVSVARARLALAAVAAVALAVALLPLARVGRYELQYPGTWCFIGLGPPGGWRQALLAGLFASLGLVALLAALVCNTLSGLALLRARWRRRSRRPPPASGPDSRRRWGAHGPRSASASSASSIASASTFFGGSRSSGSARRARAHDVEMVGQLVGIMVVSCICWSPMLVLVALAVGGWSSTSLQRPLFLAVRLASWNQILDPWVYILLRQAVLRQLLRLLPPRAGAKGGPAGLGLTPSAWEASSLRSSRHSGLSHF
Experimental: PG receptor affinity of compound F and compound J of the present invention was evaluated. Compound F used was one synthesized in Example 9, and compound J was prepared by separating and purifying the compound synthesized in Example 14 with a column (the same preparations were used in the following Examples). COS-7 cells were transfected with the genes of mouse EP4, human EP1-4 or human IP to overexpress the receptor and then the cell membranes were collected. As a labeled ligand, tritium-labeled PGE2 was used for EPs; tritium-labeled iloprost, for IP. The dissociation constant Kd value was obtained and inhibition constant Ki value of each test compound was determined in a conventional method. As a reference control, PGE2 was used for EPs; beraprost sodium (BPS), for IP.

IL-2 = experiment: Suppression of IL-2 production by anti-CD3/anti-CD28 stimulated CD4 positive T cells; type: cell-based; settings: human CD4 positive T cells, anti-CD3 and anti-CD28 antibody, 24 hr, ELISA; geometric mean of three volunteers
Experimental: Using human peripheral blood, an anti-inflammatory effect of compounds F and J in vitro was studied. Blood was collected from 3 healthy volunteers, and CD4 positive T cells were prepared. Anti-CD3 antibody and anti-CD28 antibody were added, and 24 hr later the amounts of IL-2 and TNFα released in the medium were measured by ELISA. […] The amount of IP-10 released into the medium for 48 hr was measured with ELISA. In both cases, the test compound was added 30 min before stimulation.
Each value is a geometric mean of three volunteers.

Ki (human EP1): 2.9 nM
IC50 (IL-2): 0.062 nM
SMILES: CCCCC[C@H](O)/C=C/[C@H]1[C@H](O)CC(=O)[C@@H]1C/C=C\CCCC(=O)O [PGE2]
